Reference: patent US10815238B2, “Antimicrobial compounds and methods of making and using the same” (BIOVERSYS AG, priority 2013, dated 2020)

These compounds were tested on Eschericia coli (E. coli) strain ATCC25922 (assay: Standard microdilution assay, MIC against E. coli ATCC25922). Details: Escherichia coli; E. coli strain ATCC25922, standard microdilution assay; cutoff 16 micrograms/mL; read-out: MIC E. Coli.
Type: cell-based
Summary of the method: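 Scoring as + or − used a 16 micrograms/mL cutoff on minimum inhibitory concentrations. These came from CLSI-standard microdilution, quality-controlled with reference strains tested in the same run.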

MIC, < 16 µg/mL:
C=CC[C@@H](CCN[C@@H](C)c1ccc(-n2cc3cc(-c4cc(CCC[C@H](C)N)cc(Cl)c4F)[nH]c3nc2=O)cc1)NC(=N)N [Compound 252]
C[C@H](N)CCCc1cc(Cl)c(F)c(-c2cc3cn(-c4ccc([C@H](N)C(=O)NCCNC(=N)N)cc4)c(=O)nc3[nH]2)c1 [Compound 253]
C[C@H](N)CCCc1cc(Cl)c(F)c(-c2cc3cn(-c4ccc([C@H](N)C(=O)NCCN)cc4)c(=O)nc3[nH]2)c1 [Compound 254]
C[C@H](N)CCCc1cc(OC(F)(F)F)c(F)c(-c2cc3cn(-c4ccc([C@H](N)C(=O)NCCNC(=N)N)cc4)c(=O)nc3[nH]2)c1 [Compound 255]
C[C@H](N)CCCc1cc(Cl)c(F)c(-c2cc3cn(-c4ccc([C@@H](N)C(=O)NCCNC(=N)N)cc4)c(=O)nc3[nH]2)c1 [Compound 256]
C[C@H](N)CCCc1cc(OC(F)(F)F)c(F)c(-c2cc3cn(-c4ccc([C@@H](N)C(=O)NCCNC(=N)N)cc4)c(=O)nc3[nH]2)c1 [Compound 257]
C[C@H](N)CCCc1cc(Cl)c(F)c(-c2cc3cn(-c4ccc([C@H](C)NCC[C@@H](CCc5ccccc5)NC(=N)N)cc4)c(=O)nc3[nH]2)c1 [Compound 258]
C[C@H](N)CCCc1cc(OC(F)(F)F)c(F)c(-c2cc3cn(-c4ccc([C@H](C)NCC[C@@H](CCc5ccccc5)NC(=N)N)cc4)c(=O)nc3[nH]2)c1 [Compound 259]
C=CC[C@H](CCN[C@@H](C)c1ccc(-n2cc3cc(-c4cc(CCC[C@H](C)N)cc(OC(F)(F)F)c4F)[nH]c3nc2=O)cc1)NC(=N)N [Compound 260]
C=CC[C@@H](CCN[C@@H](C)c1ccc(-n2cc3cc(-c4cc(CCC[C@H](C)N)cc(OC(F)(F)F)c4F)[nH]c3nc2=O)cc1)NC(=N)N [Compound 261]
C[C@H](N)CCCc1cc(Cl)c(F)c(-c2cc3cn(-c4ccc([C@H](C)NCC[C@H](CO)NC(=N)N)cc4)c(=O)nc3[nH]2)c1 [Compound 262]
C[C@H](N)CCCc1cc(OC(F)(F)F)c(F)c(-c2cc3cn(-c4ccc([C@H](C)NCC[C@H](CO)NC(=N)N)cc4)c(=O)nc3[nH]2)c1 [Compound 263]
C[C@H](N)CCCc1cc(Cl)c(F)c(-c2cc3cn(-c4ccc([C@H](C)NCC[C@@H](CO)NC(=N)N)cc4)c(=O)nc3[nH]2)c1 [Compound 264]
C[C@H](N)CCCc1cc(OC(F)(F)F)c(F)c(-c2cc3cn(-c4ccc([C@H](C)NCC[C@@H](CO)NC(=N)N)cc4)c(=O)nc3[nH]2)c1 [Compound 265]
C[C@H](N)CCCc1cc(Cl)c(F)c(-c2cc3cn(-c4ccc([C@H](C)NCC[C@@H](Cc5c[nH]nn5)NC(=N)N)cc4)c(=O)nc3[nH]2)c1 [Compound 266]
C[C@H](N)CCCc1cc(Cl)c(F)c(-c2cc3cn(-c4ccc([C@H](C)NCC[C@H](Cc5c[nH]nn5)NC(=N)N)cc4)c(=O)nc3[nH]2)c1 [Compound 267]
C[C@H](N)CCCc1cc(OC(F)(F)F)c(F)c(-c2cc3cn(-c4ccc([C@H](C)NCC[C@@H](Cc5c[nH]nn5)NC(=N)N)cc4)c(=O)nc3[nH]2)c1 [Compound 268]
C[C@H](N)CCCc1cc(OC(F)(F)F)c(F)c(-c2cc3cn(-c4ccc([C@H](C)NCC[C@H](Cc5c[nH]nn5)NC(=N)N)cc4)c(=O)nc3[nH]2)c1 [Compound 269]
C[C@H](N)CCCc1cc(Cl)c(F)c(-c2cc3cn(-c4ccc([C@H](C)NCCC(CC(O)CO)NC(=N)N)cc4)c(=O)nc3[nH]2)c1 (stereo partly drawn) [Compound 270]
C[C@H](N)CCCc1cc(Cl)c(F)c(-c2cc3cn(-c4ccc([C@H](C)NCC[C@@H](CN)NC(=N)N)cc4)c(=O)nc3[nH]2)c1 [Compound 271]
C[C@H](N)CCCc1cc(Cl)c(F)c(-c2cc3cn(-c4ccc([C@H](C)NCC[C@@H](CNCc5nccs5)NC(=N)N)cc4)c(=O)nc3[nH]2)c1 [Compound 272]
C[C@H](N)CCCc1cc(Cl)c(F)c(-c2cc3cn(-c4ccc(CN[C@@H](CO)CCNC(=N)N)cc4)c(=O)nc3[nH]2)c1 [Compound 273]
C[C@H](N)CCCc1cc(OC(F)(F)F)c(F)c(-c2cc3cn(-c4ccc(CN[C@@H](CO)CCNC(=N)N)cc4)c(=O)nc3[nH]2)c1 [Compound 274]
C[C@H](N)CCCc1cc(Cl)c(F)c(-c2cc3cn(-c4ccc([C@H](C)NCC[C@H](CCCO)NC(=N)N)cc4)c(=O)nc3[nH]2)c1 [Compound 275]
C[C@H](N)CCCc1cc(OC(F)(F)F)c(F)c(-c2cc3cn(-c4ccc([C@H](C)NCC[C@H](CCCO)NC(=N)N)cc4)c(=O)nc3[nH]2)c1 [Compound 276]
C[C@H](N)CCCc1cc(OC(F)(F)F)c(F)c(-c2cc3cn(-c4ccc([C@H](C)NCC[C@@H](CNCc5nccs5)NC(=N)N)cc4)c(=O)nc3[nH]2)c1 [Compound 277]
C[C@H](N)CCCc1cc(OC(F)(F)F)c(F)c(-c2cc3cn(-c4ccc([C@H](C)NCC[C@@H](CN)NC(=N)N)cc4)c(=O)nc3[nH]2)c1 [Compound 278]
C[C@H](N)CCCc1cc(Cl)c(F)c(-c2cc3cn(-c4ccc([C@H](C)NCC[C@@H](Cn5cccn5)NC(=N)N)cc4)c(=O)nc3[nH]2)c1 [Compound 279]
COC(=O)C[C@H](CCN[C@@H](C)c1ccc(-n2cc3cc(-c4cc(CCC[C@H](C)N)cc(Cl)c4F)[nH]c3nc2=O)cc1)NC(=N)N [Compound 280]
C[C@H](N)CCCc1cc(Cl)c(F)c(-c2cc3cn(-c4ccc([C@H](C)NCC[C@@H](CCCN)NC(=N)N)cc4)c(=O)nc3[nH]2)c1 [Compound 281]
C[C@H](N)CCCc1cc(Cl)c(F)c(-c2cc3cn(-c4ccc([C@H](C)NCC[C@H](CCCN)NC(=N)N)cc4)c(=O)nc3[nH]2)c1 [Compound 282]
C[C@H](N)CCCc1cc(OC(F)(F)F)c(F)c(-c2cc3cn(-c4ccc([C@H](C)NCC[C@@H](CCCN)NC(=N)N)cc4)c(=O)nc3[nH]2)c1 [Compound 283]
C[C@H](N)CCCc1cc(OC(F)(F)F)c(F)c(-c2cc3cn(-c4ccc([C@H](C)NCC[C@H](CCCN)NC(=N)N)cc4)c(=O)nc3[nH]2)c1 [Compound 284]
C[C@H](N)CCCc1cc(Cl)c(F)c(-c2cc3cn(-c4ccc([C@@H]5CC[C@@H](CCNC(=N)N)N5)cc4)c(=O)nc3[nH]2)c1 [Compound 285]
C[C@H](N)CCCc1cc(Cl)c(F)c(-c2[nH]c3nc(=O)n(-c4ccc([C@H](C)NCCCNC(=N)N)cc4)cc3c2Br)c1 [Compound 286]
CSC[C@@H](CCN[C@@H](C)c1ccc(-n2cc3cc(-c4cc(CCC[C@H](C)N)cc(Cl)c4F)[nH]c3nc2=O)cc1)NC(=N)N [Compound 287]
CSC[C@@H](CCN[C@@H](C)c1ccc(-n2cc3cc(-c4cc(CCC[C@H](C)N)cc(OC(F)(F)F)c4F)[nH]c3nc2=O)cc1)NC(=N)N [Compound 288]
C[C@H](N)CCCc1cc(Cl)c(F)c(-c2cc3cn(-c4ccc([C@H](C)NCC[C@H](CS(C)(=O)=O)NC(=N)N)cc4)c(=O)nc3[nH]2)c1 [Compound 289]
C[C@H](N)CCCc1cc(Cl)c(F)c(-c2[nH]c3nc(=O)n(-c4ccc([C@H](C)NCCCNC(=N)N)cc4)cc3c2Cl)c1 [Compound 290]
